# Tests used:
# [1] = tested on: embryonic stem cell; conditions: cited from earlier work
# [2] = tested on: ES cell EB5; assay: Nerve differentiation of ES cell EB5 by solution recovered from PA6 cell with polyanion-containing Hanks' balanced salt solution (SDIA activity); type: cell-based, mouse; conditions: 14 days
# Method: ES cell EB5 (H. Niwa et al., Nature Genet., 24, 372 (2000); obtained from Dr. Hitoshi Niwa at the Molecular Control Medical Science Course, Medical School, Osaka University) was used as the embryonic stem cell, and an MC3T3-G2/PA6 cell (H. Kodama et al., J. Cell Physiol., 112) 89 (1982), hereinafter referred to as “PA6 cell”) as the stromal cell, and the ES cell EB5 was cultured in accordance with the method described in Reference Example 1 and used in the test.
# Cells of PA6 cultured to almost confluent state on a dish of 10 cm in diameter were washed twice with 10 ml of PBS(−) (manufactured by Invitrogen) and once with 10 ml of Hanks' balanced salt solution (manufactured by Invitrogen), 3 ml of Hanks' balanced salt solution containing from 0.001% (w/v) to 0.1% (w/v) of heparin (manufactured by Nacalai Tesque) was added thereto, the mixture was allowed to stand at 37° C. for 30 minutes, and the solution was recovered. The solution obtained was added to the PA6 on the 10 cm, dish washed in the same manner described above, the mixture was allowed to stand at 37° C. for 30 minutes in the same manner, and then the solution was recovered. This process was carried out on PA6 on the other 10 cm dish, and effect of the recovered solution ES cell was examined. In this case, a solution recovered in the same manner by using a heparin-free Hanks' balanced salt solution was used as a negative control.
# The solution obtained in the above was mixed at a ratio of 1:2 with a solution containing the ES cell EB5 which had been adjusted to a single cell state in a serum-free medium by the method described in Reference Example 1, and the mixture was inoculated into a gelatin-coated plastic culture dish at a cell density of 1,250 cells/cm^2 and incubated at 37° C. for 14 days in a CO2 incubator in an atmosphere of 5% carbon dioxide.
# The cells after the culturing were fixed by 4% paraformaldehyde solution and subjected to immune staining in accordance with the method described in Using Antibodies, Cold Spring Harbor Laboratory Press (1999), using an anti-NCAM antibody (manufactured by Chemicon) as a general nerve marker, an anti-class III β-tubulin antibody (manufactured by Babco) as a nerve-specific marker and an anti-nestin antibody (manufactured by Pharmingen) as a nerve precursor cell-specific marker.
# Compounds other than heparin with which the SDIA activity factor can be recovered were searched by the method for recovering an SDIA activity factor described in Example 1. Using a Hanks' balanced salt solution containing, instead of heparin, 0.001% (w/v) dextran sulfate (manufactured by Sigma), 0.001% (w/v) polyvinyl sulfate (manufactured by Sigma), 0.001% (w/v) polystyrene sulfonate (manufactured by Tosoh) 0.1% (w/v) carboxymethylcellulose (manufactured by, Wako Pure Chemical Industries) or 0.1% (w/v) hyaluronic acid (manufactured by Kibun Chemical Foods), respective solutions were recovered by the method described in Example 1 to examine their effects on the ES cell. In this case, a solution recovered in the same manner by using a heparin-free Hanks' balanced salt solution was used as a negative control.
# [3] = tested on: ES cell EB5; assay: Heparin treatment of PA6 feeder cell before paraformaldehyde fixation, nerve differentiation of ES cell EB5; type: cell-based, mouse; conditions: PA6 cell cultured 2 days in medium containing 200 ng/ml heparin, then paraformaldehyde-fixed; 8 days coculture
# Method: According to the method described in Reference Example 3, the ES cell EB5 was cultured for 8 days in the serum-free medium without BMP4 by using the paraformaldehyde-fixed PA6 cell as a feeder cell. Also, the case when the PA6 cell was cultured in a medium containing heparin (GIBCO BRL) (hereinafter referred to as “heparin treatment”) was compared with the case when culturing in a heparin-free medium. That is, dishes in which the PA6 cell proliferated to almost confluent on a 3 cm tissue culture dish was cultured for 2 days in a medium containing 200 ng/ml of heparin and dishes in which it was cultured for 2 days in a heparin-free medium were prepared, washed twice with PBS(−) and subjected to paraformaldehyde fixation, and the ES cell EB5 was inoculated onto the paraformaldehyde-fixed PA6 cell at a density of 200 cells/dish, the medium was exchanged with a fresh medium on the 4th, 6th and 7th days, and then the cells were cultured at 37° C. for 8 days in a stream of 5% carbon dioxide in a CO2 incubator.
# Eight days after coculturing, the cells were fixed according to the method described in Reference Example 1, and the colonies formed as a result of the coculturing of the ES cell EB5 with PA6 cell were immunologically stained with the anti-NCAM antibody, anti-tubulin antibody and anti-nestin antibody.
# [4] = solution recovered from PA6 cell with Hanks' solution containing 0.1% (w/v) polyanion instead of heparin
# [5] = solution recovered from PA6 cell with Hanks' solution containing 0.001% (w/v) polyanion instead of heparin
substance,measurement,setting,value
EGF: epidermal growth factor,SDIA-like activity to induce differentiation of embryonic stem cell into ectoderm system cells,[1],no SDIA-like activity
HGF: hepatocyte growth factor,SDIA-like activity to induce differentiation of embryonic stem cell into ectoderm system cells,[1],no SDIA-like activity
LIF: leukemia inhibitory factor,SDIA-like activity to induce differentiation of embryonic stem cell into ectoderm system cells,[1],no SDIA-like activity
PDGF,SDIA-like activity to induce differentiation of embryonic stem cell into ectoderm system cells,[1],no SDIA-like activity
bFGF: basic fibroblast growth factor,SDIA-like activity to induce differentiation of embryonic stem cell into ectoderm system cells,[1],no SDIA-like activity
carboxymethylcellulose,ratio of colonies expressing class III β-tubulin,[2]; [4],34.6%
dextran sulfate,ratio of colonies expressing class III β-tubulin,[2]; [5],67.2%
heparin,ratio of colonies expressing class III β-tubulin,"[2]; solution recovered from PA6 cell with Hanks' balanced salt solution containing 0.001% (w/v) heparin, mixed 1:2 with ES cell EB5",68%
same,differentiation of ES cell into nerve cell on heparin-treated PA6 feeder cell,[3],significant differentiation of ES cell into nerve cell was not observed
hyaluronic acid,ratio of colonies expressing class III β-tubulin,[2]; [4],19.8%
polystyrene sulfonate,ratio of colonies expressing class III β-tubulin,[2]; [5],48.7%
polyvinyl sulfate,ratio of colonies expressing class III β-tubulin,[2]; [5],54.8%

# Source: US20080160617A1, “AGENT FOR INDUCING EMBRYONIC STEM CELL TO ECTODERMAL CELL, METHOD FOR OBTAINING THE SAME, AND USE OF THE SAME” (KYOWA HAKKO KOGYO CO., LTD., priority 2001, published 2008)
